Laboratory results from US10752587B2, “Homobispiperidinyl derivatives as liver X receptor beta agonists, compositions and their use” (Merck Sharp & Dohme Corp., priority 2015, dated 2020).

Legend:
[1] = target: T1, glutathione-S-transferase (GST) tagged LXRbeta LBD (ligand binding domain) (Homo sapiens, UniProt P55055); test: LanthaScreen TR-FRET Liver X Receptor Coactivator Assay, co-activator recruitment to LXRbeta LBD; format: biochemical; conditions: for Emax / LXR beta Activity @ max dose (%): efficacy at max dose, in relation to reference dual agonist T0901317; for Emax: read-out: LXR beta Activity @ max dose (%); for EC50: potency (Inflection Point, IP), co-activator recruitment to LXRbeta LBD, in relation to T0901317, read-out: LXR beta IP
T1 construct: purchased Invitrogen pv4658.pps
T1 sequence (P55055 222-460 limits assumed): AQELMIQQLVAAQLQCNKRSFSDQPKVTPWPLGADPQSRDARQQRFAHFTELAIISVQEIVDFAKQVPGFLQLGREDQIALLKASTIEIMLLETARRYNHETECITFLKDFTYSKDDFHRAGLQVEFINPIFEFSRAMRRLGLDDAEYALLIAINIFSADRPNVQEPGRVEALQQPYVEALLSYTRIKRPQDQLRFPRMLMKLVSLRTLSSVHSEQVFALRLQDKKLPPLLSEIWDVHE
Procedure, shortened: (§1)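 LXRα- or LXRβ-LBD protein was added to test compounds, then fluorescein-labelled coactivator peptide plus Tb-anti-GST antibody; after room-temperature incubation, TR-FRET was read. Inflection point (IP) and Emax were expressed relative to the dual agonist reference T0901317.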

[2] = target: T2, glutathione-S-transferase (GST) tagged LXRalpha LBD (ligand binding domain) (Homo sapiens, UniProt Q13133); test: LanthaScreen TR-FRET Liver X Receptor Coactivator Assay, co-activator recruitment to LXRalpha LBD; format: biochemical; conditions: for Emax / LXR alpha Activity @ max dose (%): efficacy at max dose, in relation to reference dual agonist T0901317; for Emax: read-out: LXR alpha Activity @ max dose (%); for LXR alpha IP (nM) / EC50: potency (Inflection Point, IP), co-activator recruitment to LXRalpha LBD, in relation to T0901317; for EC50: read-out: LXR alpha IP
T2 construct: purchased Invitrogen pv4655
T2 sequence (Q13133 209-447 limits assumed): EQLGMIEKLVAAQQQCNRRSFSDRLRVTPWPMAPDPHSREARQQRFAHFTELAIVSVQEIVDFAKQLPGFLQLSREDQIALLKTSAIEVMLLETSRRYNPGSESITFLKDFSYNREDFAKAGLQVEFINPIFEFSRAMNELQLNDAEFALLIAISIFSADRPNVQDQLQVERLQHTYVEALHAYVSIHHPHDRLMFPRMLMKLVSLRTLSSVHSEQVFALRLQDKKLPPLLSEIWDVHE
Procedure, shortened: as §1

SMILES	Emax [1] [%]	EC50 [1] [nM]	Emax [2] [%]	LXR alpha IP (nM) [2]	EC50 [2] [nM]	LXR beta Activity @ max dose (%) [1] [%]	LXR alpha Activity @ max dose (%) [2] [%]
COc1cccc([C@@](O)(C(=O)N2CC(CC3CCN(c4ccc(C(=O)N(C)C)c(Cl)c4)CC3)C2)C(F)(F)F)c1 [Example 2-59, 2-chloro-N,N-dimethyl-4-[4-({1-[(2R)-3,3,3-trifluoro-2-hydroxy-2-(3-methoxyphenyl)propanoyl]azetidin-3-yl}methyl)piperidin-1-yl]benzamide]	62	18	3	NO IP	–	–	–
CN(C)C(=O)c1ccc(N2CCC(OC3CCN(C(=O)C(O)(c4ccc(Cl)cc4)C(F)(F)F)CC3)CC2)cc1Cl (stereo not shown) [Example 2-23, 2-chloro-4-[4-({1-[2-(4-chlorophenyl)-3,3,3-trifluoro-2-hydroxy-propanoyl]piperidin-4-yl}oxy)piperidin-1-yl]-N,N-dimethyl-benzamide]	51	513	0	NO IP	–	–	–
CN(C)C(=O)c1ccc(N2CCC(CC3CCN(C(=O)[C@](O)(c4ccccc4)C(F)(F)F)CC3)CC2)cc1Cl [Example 2-43, 2-chloro-N,N-dimethyl-4-[4-({1-[(2R)-3,3,3-trifluoro-2-hydroxy-2-phenyl-propanoyl]piperidin-4-yl}methyl)piperidin-1-yl]benzamide]	–	–	–	–	–	75	16
CC(C)C(O)(C(=O)N1CCC(CC2CCN(c3ccc(C(=O)N(C)C)c(Cl)c3)CC2)CC1)c1ccccc1 (stereo not shown) [Example 2-109, 2-chloro-4-(4-{[1-(2-hydroxy-3-methyl-2-phenylbutanoyl)piperidin-4-yl]methyl}piperidin-1-yl)-N,N-dimethyl-benzamide]	75	72	26	–	982	–	–
CCC(O)(C(=O)N1CCC(CC2CCN(c3ccc(C(=O)N(C)C)c(Cl)c3)CC2)CC1)c1ccccc1 (stereo not shown) [Example 2-32, 2-chloro-4-(4-{[1-(2-hydroxy-2-phenyl-butanoyl)piperidin-4-yl]methyl}piperidin-1-yl)-N,N-dimethyl-benzamide]	55	72	19	–	1420	–	–
Cc1cc(N2CCC(CC3CCN(C(=O)[C@](O)(c4cccc(Cl)c4)C(F)(F)F)CC3)CC2)ccc1C(=O)N(C)C [Example 2-159, 4-[4-({1-[(2R)-2-(3-chloro-phenyl)-3,3,3-trifluoro-2-hydroxy-propanoyl]piperidin-4-yl}methyl)piperidin-1-yl]-N,N,2-trimethyl-benzamide]	65	21	22	–	156	–	–
CN(C)C(=O)c1ccc(N2CCC(OC3CCN(C(=O)[C@](O)(c4ccccc4)C(F)(F)F)CC3)CC2)cc1Cl [Example 2-21, 2-chloro-N,N-dimethyl-4-[4-({1-[(2R)-3,3,3-trifluoro-2-hydroxy-2-phenylpropanoyl]piperidin-4-yl}oxy)piperidin-1-yl]benzamide]	–	–	–	NO IP	–	65	0
Cc1cc(F)cc(C(O)(C(=O)N2CCC(CC3CCN(c4ccc(C(=O)N(C)C)c(Cl)c4)CC3)CC2)C(F)(F)F)c1 (stereo not shown) [Example 2-42, 2-chloro-N,N-dimethyl-4-[4-({1-[3,3,3-trifluoro-2-(3-fluoro-5-methylphenyl)-2-hydroxy-propanoyl]piperidin-4-yl}methyl)piperidin-1-yl]benzamide]	76	12	25	–	162	–	–
Cc1cc(N2CCC(CC3(C)CCN(C(=O)[C@](O)(c4cccc(OC(C)C)c4)C(F)(F)F)CC3)CC2)ccc1C(=O)N(C)C [Example 2-77, N,N,2-trimethyl-4-{4-[(4-methyl-1-{(2R)-3,3,3-trifluoro-2-hydroxy-2-[3-(1-methylethoxy)phenyl]propanoyl}piperidin-4-yl)methyl]piperidin-1-yl}benzamide]	44	45	2	NO IP	–	–	–

Second part, the compound after the results:

Emax [1] [%]	EC50 [1] [nM]	Emax [2] [%]	LXR alpha IP (nM) [2]	EC50 [2] [nM]	LXR beta Activity @ max dose (%) [1] [%]	LXR alpha Activity @ max dose (%) [2] [%]	SMILES
56	10	10	NO IP	–	–	–	CC(C)Oc1cccc(C(O)(C(=O)N2CCC(CC3CCN(c4ccc(C(=O)N(C)C)c(Cl)n4)CC3)CC2)C(F)(F)F)c1 (stereo not shown) [Example 7-76, 2-chloro-N,N-dimethyl-6-{4-[(1-{3,3,3-trifluoro-2-hydroxy-2-[3-(1-methylethoxy)phenyl]propanoyl}piperidin-4-yl)methyl]piperidin-1-yl}pyridine-3-carboxamide]
105	243	28	–	2020	–	–	CNC(=O)c1ccc(N2CCC(OC3CCN(C(=O)C(O)(c4cccc(C(F)(F)F)c4)C(F)(F)F)CC3)CC2)cc1Cl (stereo not shown) [Example 7-28, 2-chloro-N-methyl-4-{4-[(1-{3,3,3-trifluoro-2-hydroxy-2-[3-(trifluoromethyl)phenyl]propanoyl}piperidin-4-yl)oxy]piperidin-1-yl} benzamide]
35	25	0	NO IP	–	–	–	CNC(=O)c1ccc(N2CCC(CC3CCN(C(=O)[C@](O)(c4cc(Cl)cc(OC)c4)C(F)(F)F)CC3)CC2)cc1Cl [Example 7-117, 2-chloro-4-[4-({1-[(2R)-2-(3-chloro-5-methoxyphenyl)-3,3,3-trifuoro-2-hydroxypropanoyl]piperidin-4-yl}methyl)piperidin-1-yl]-N-methylbenzamide]
109	2	46	–	40	–	–	CN(C)C(=O)c1ccc(N2CCC(CC3(C)CCN(C(=O)[C@](O)(c4cc(F)cc(Cl)c4)C(F)(F)F)CC3)CC2)nc1Cl [Example 7-46, 2-chloro-6-[4-({1-[(2R)-2-(3-chloro-5-fluorophenyl)-3,3,3-trifluoro-2-hydroxypropanoyl]-4-methylpiperidin-4-yl}methyl)piperidin-1-yl]-N,N-dimethylpyridine-3-carboxamide]
151	49	49	–	1750	–	–	CN(C)C(=O)c1ccc(N2CCC(CC3CCN(C(=O)[C@](N)(c4ccccc4)C(F)(F)F)CC3)CC2)nc1Cl [Example 7-111, 6-[4-({1-[(2R)-2-amino-3,3,3-trifluoro-2-phenylpropanoyl]piperidin-4-yl}methyl)piperidin-1-yl]-2-chloro-N,N-dimethylpyridine-3-carboxamide]
67	136	1	NO IP	–	–	–	CNC(=O)c1ccc(N2CCC(CC3CN(C(=O)[C@](O)(c4cccc(OC)c4)C(F)(F)F)C3)CC2)cc1Cl [Example 7-38, 2-chloro-N-methyl-4-[4-({1-[(2R)-3,3,3-trifluoro-2-hydroxy-2-(3-methoxyphenyl)propanoyl]azetidin-3-yl}methyl)piperidin-1-yl]benzamide]
110	25	34	–	1250	–	–	CN(C)C(=O)c1ccc(N2CCC(CC3CCN(C(=O)[C@@](O)(c4cccc(Cl)c4)C(F)(F)F)CC3)CC2)nc1Cl [Example 7-70, 2-chloro-6-[4-({1-[(2S)-2-(3-chlorophenyl)-3,3,3-trifluoro-2-hydroxypropanoyl]piperidin-4-yl}methyl)piperidin-1-yl]-N,N-dimethyl-pyridine-3-carboxamide]
102	176	25	–	3240	–	–	CNC(=O)c1ccc(N2CCC(OC3CCN(C(=O)C(O)(c4cccc(C)c4)C(F)(F)F)CC3)CC2)cc1Cl (stereo not shown) [Example 7-29, 2-chloro-N-methyl-4-[4-({1-[3,3,3-trifluoro-2-hydroxy-2-(3-methylphenyl)propanoyl]piperidin-4-yl}oxy)piperidin-1-yl]benzamide]
65	12	24	–	120	–	–	CCc1cccc([C@@](O)(C(=O)N2CCC(CC3CCN(c4ccc(C(=O)NC)c(Cl)n4)CC3)CC2)C(F)(F)F)c1 [Example 7-148, 2-chloro-6-[4-({1-[(2R)-2-(3-ethylphenyl)-3,3,3-trifluoro-2-hydroxypropanoyl]piperidin-4-yl}methyl)piperidin-1-yl]-N-methylpyridine-3-carboxamide]
67	10	13	NO IP	–	–	–	CN(C)C(=O)c1ccc(N2CCC(CC3CCN(C(=O)[C@](O)(c4cccc(OC(F)(F)F)c4)C(F)(F)F)CC3)CC2)nc1Cl [Example 7-75, 2-chloro-N,N-dimethyl-6-{4-[(1-{(2R)-3,3,3-trifluoro-2-hydroxy-2-[3-(trifluoromethoxy)phenyl]propanoyl}piperidin-4-yl)methyl]piperidin-1-yl}pyridine-3-carboxamide]
